Measured values taken from patent publication US4556713A, “6-Fluoro-5-nitroquinaldine” (Riker Laboratories, Inc., priority 1984, dated 1985).
In brackets after ≈: the same amount, converted by molar mass. Read-outs that look alike come from different tables or passages of the source.

Legend:
Pseudomonas aeruginosa = assay: Plate dilution antimicrobial susceptibility, Pseudomonas aeruginosa; details: for MIC: 24 h, read-out: Minimum Inhibitory Concentration
Method: (§1) Tryptone soy agar (oxoid) of the following composition is the culture medium.
(§2) A series of plates with these concentrations is prepared. Ten percent horse serum is added to one series of such plates. Aliquots of broth culture of any of twelve species of microorganisms are innoculated onto the agar plates contaning the various compound concentrations. The plates are incubated at 37° C. in a 10 percent carbon dioxide atmosphere for 18 to 24 hours. The microbial growth on each plate is read visually, and minimal inhibitory concentrations are recorded.
(§3) The tests were run both in the absence and in the presence of horse serum as described hereinabove.

Escherichia coli = assay: Plate dilution antimicrobial susceptibility, Escherichia coli; details: for MIC: 24 h, read-out: Minimum Inhibitory Concentration
Method: as §1, §2, §3

Staphylococcus aureus = assay: Plate dilution antimicrobial susceptibility, Staphylococcus aureus; details: for MIC: 24 h, read-out: Minimum Inhibitory Concentration
Method: as §1, §2, §3

ENTEROCOCCUS = assay: Plate dilution antimicrobial susceptibility, Enterococcus; details: for MIC: 24 h
Method: as §1, §2, §3

STREP. SPECIES = assay: Plate dilution antimicrobial susceptibility, Strep. species; details: for MIC: 24 h, read-out: Minimum Inhibitory Concentration, Strep. species; for Minimum Inhibitory Concentration: Strep. species
Method: as §1, §2, §3

Klebsiella pneumoniae = assay: Plate dilution antimicrobial susceptibility, Klebsiella pneumoniae; details: for MIC: 24 h, read-out: Minimum Inhibitory Concentration
Method: as §1, §2, §3

[1] = system: gram-positive and gram-negative microorganisms; assay: Plate dilution method, antimicrobial activity in general (gram-positive and gram-negative microorganisms); type: cell-based; details: in vitro
[2] = presence of 10 percent horse serum
[3] = read-out: Minimum Inhibitory Concentration, Enterococcus, absence of horse serum
[4] = read-out: Minimum Inhibitory Concentration, Enterococcus, presence of 10 percent horse serum

Row | SMILES | Minimum Inhibitory Concentration (Pseudomonas aeruginosa; [2]) | Minimum Inhibitory Concentration (Escherichia coli; [2]) | Minimum Inhibitory Concentration (Staphylococcus aureus; [2]) | Minimum Inhibitory Concentration (ENTEROCOCCUS; [2]) | Minimum Inhibitory Concentration (Klebsiella pneumoniae; [2]) | Minimum Inhibitory Concentration (Pseudomonas aeruginosa; absence of horse serum) | Minimum Inhibitory Concentration (Escherichia coli; absence of horse serum) | Minimum Inhibitory Concentration (Staphylococcus aureus; absence of horse serum) | Minimum Inhibitory Concentration (STREP. SPECIES; absence of horse serum) | Minimum Inhibitory Concentration (STREP. SPECIES; [2]) | Minimum Inhibitory Concentration (ENTEROCOCCUS; absence of horse serum) | Minimum Inhibitory Concentration (Klebsiella pneumoniae; absence of horse serum) | also measured
1 | CC1CCc2c(Br)c(F)cc3c(=O)c(C(=O)[O-])cn1c23.[Na+] (stereo not shown) [8-Br, 9-F sodium salt, sodium 8-bromo-6,7-dihydro-9-fluoro-5-methyl-1-oxo-1H,5H-benzo[ij]quinolizine-2-carboxylate] | 10 mg/L | .1 mg/L | .1 mg/L | 1 mg/L | – | – | – | – | – | – | – | – | –
2 | CC1CCc2c(Br)c(F)cc3c(=O)c(C(=O)O)cn1c23 (stereo not shown) [8-Br, 9-F, 8-bromo-6,7-dihydro-9-fluoro-5-methyl-1-oxo-1H,5H-benzo[ij]quinolizine-2-carboxylic acid] | 10 mg/L | .1 mg/L | .1 mg/L | – | 1 mg/L | – | – | – | – | – | – | – | MIC (Pseudomonas aeruginosa): 10 µg/mL (≈ 29.4 µM); MIC (Escherichia coli): 0.1 µg/mL (≈ 0.294 µM); MIC (Staphylococcus aureus): 0.1 µg/mL (≈ 0.294 µM); MIC (STREP. SPECIES; absence of horse serum): 1 µg/mL (≈ 2.94 µM); MIC (STREP. SPECIES; [2]): 10 µg/mL; MIC (ENTEROCOCCUS; [3]): 1 µg/mL (≈ 2.94 µM); MIC (ENTEROCOCCUS; [4]): 1 µg/mL; MIC (Klebsiella pneumoniae): 1 µg/mL (≈ 2.94 µM)
3 | Cc1cc2c(=O)c(C(=O)O)cn3c2c(c1Cl)CCC3C (stereo not shown) [8-Cl, 9-CH3] | I | 10 mg/L | 100 mg/L | I | 100 mg/L | 100 mg/L | 10 mg/L | 10 mg/L | 100 mg/L | 100 mg/L | 100 mg/L | 100 mg/L | –
4 | CC1CCc2c(Cl)c(F)cc3c(=O)c(C(=O)[O-])cn1c23.[Na+] (stereo not shown) [8-Cl, 9-F sodium salt, sodium 8-chloro-6,7-dihydro-9-fluoro-5-methyl-1-oxo-1H,5H-benzo[ij]quinolizine-2-carboxylate] | 10 mg/L | – | – | 1 mg/L | 1 mg/L | – | – | – | – | – | – | – | –
5 | CC1CCc2c(Cl)c(F)cc3c(=O)c(C(=O)O)cn1c23 (stereo not shown) [8-Cl, 9-F, 8-chloro-6,7-dihydro-9-fluoro-5-methyl-1-oxo-1H,5H-benzo[ij]quinolizine-2-carboxylic acid] | 10 mg/L | .1 mg/L | – | – | 1 mg/L | – | – | – | – | – | – | – | MIC (Pseudomonas aeruginosa): 10 µg/mL (≈ 33.8 µM); MIC (Escherichia coli): 0.1 µg/mL (≈ 0.338 µM); MIC (Staphylococcus aureus): 0.1 µg/mL (≈ 0.338 µM); MIC (STREP. SPECIES; [2]): 10 µg/mL; MIC (ENTEROCOCCUS; [3]): 1 µg/mL (≈ 3.38 µM); MIC (ENTEROCOCCUS; [4]): 10 µg/mL; MIC (Klebsiella pneumoniae): 1 µg/mL (≈ 3.38 µM)
6 | COc1cc2c(=O)c(C(=O)O)cn3c2c(c1Cl)CCC3C (stereo not shown) [8-Cl, 9-OCH3] | I | 10 mg/L | 10 mg/L | 100 mg/L | 100 mg/L | I | 10 mg/L | 10 mg/L | 100 mg/L | 100 mg/L | 100 mg/L | 100 mg/L | –
7 | CC1CCc2c(N)c(Cl)cc3c(=O)c(C(=O)O)cn1c23 (stereo not shown) [8-NH2,9-Cl] | I | 10 mg/L | 100 mg/L | I | 100 mg/L | I | 10 mg/L | 100 mg/L | I | I | I | 100 mg/L | –
8 | CC(=O)Nc1c(Cl)cc2c(=O)c(C(=O)O)cn3c2c1CCC3C (stereo not shown) [8-NHCOCH3, 9-Cl] | I | 10 mg/L | I | I | 100 mg/L | I | 10 mg/L | I | I | I | I | 100 mg/L | –
9 | CC1CCc2c(N)c(F)cc3c(=O)c(C(=O)O)cn1c23 (stereo not shown) [8-amino compound, 8-amino-6,7-dihydro-9-fluoro-5-methyl-1-oxo-1H,5H-benzo[ij]quinolizine-2-carboxylic acid] | – | – | – | – | – | – | – | – | – | – | – | – | antimicrobial activity (in words) [1]: good antimicrobial activity against many species of microorganisms
10 | CC1CCc2c(Cl)ccc3c(=O)c(C(=O)O)cn1c23 (stereo not shown) [Example 8-Cl] | 100 mg/L | 1 mg/L | 1 mg/L | 10 mg/L | 10 mg/L | 100 mg/L | 1 mg/L | 1 mg/L | 10 mg/L | 100 mg/L | 10 mg/L | 10 mg/L | –
11 | CC1CCc2cc(Br)cc3c(=O)c(C(=O)O)cn1c23 (stereo not shown) [Example 9-Br] | I | 10 mg/L | 100 mg/L | – | – | I | 10 mg/L | 100 mg/L | 100 mg/L | 100 mg/L | – | – | –
12 | CC1CCc2cc(Cl)cc3c(=O)c(C(=O)O)cn1c23 (stereo not shown) [Example 9-Cl] | I | 1 mg/L | 10 mg/L | – | – | I | 1 mg/L | 10 mg/L | 100 mg/L | 100 mg/L | – | – | –
13 | CC1CCc2cc(F)cc3c(=O)c(C(=O)O)cn1c23 (stereo not shown) [Example 9-F] | 100 mg/L | 1 mg/L | 10 mg/L | 100 mg/L | 1 mg/L | 100 mg/L | 1 mg/L | 10 mg/L | 100 mg/L | 100 mg/L | 100 mg/L | 1 mg/L | –
